This assay concerns MV-4-11 cells. The assay is described as follows: Gene expression microarray analysis (Affymetrix PrimeView) and GSEA. Format: cell-based, human. Also on record: RFU PODN (11730768_x_at) / Fold change /veh PODN (11730768_x_at) / RFU LINC00158 (11744669_a_at) / Fold change /veh LINC00158 (11744669_a_at) / RFU DUSP10 (11751237_a_at) / Fold change /veh DUSP10 (11751237_a_at) / RFU ID3 (11757404_x_at) / Fold change /veh ID3 (11757404_x_at) / RFU PLEKHG5 (11737974_s_at) / Fold change /veh PLEKHG5 (11737974_s_at) / RFU LRRC4B (11730491_at) / Fold change /veh LRRC4B (11730491_at) / RFU GIMAP4 (11747438_a_at) / Fold change /veh GIMAP4 (11747438_a_at) / RFU KRT8 (11758183_x_at) / Fold change /veh KRT8 (11758183_x_at) / RFU CNN1 (11734310_a_at) / Fold change /veh CNN1 (11734310_a_at) / RFU VPS37D (11726825_at) / Fold change /veh VPS37D (11726825_at) / RFU C10orf10 (11716522_x_at) / Fold change /veh C10orf10 (11716522_x_at) / RFU KIR2DL2 /// KIR2DL4 /// KIR2DL5A /// KIR2DL5B /// KIR2DS1 /// KIR2DS2 /// KIR2DS3 /// KIR2DS4 /// KIR3DL3 /// KIR3DL3 /// KIR3DS1 (11738374_at) / Fold change /veh KIR2DL2 /// KIR2DL4 /// KIR2DL5A /// KIR2DL5B /// KIR2DS1 /// KIR2DS2 /// KIR2DS3 /// KIR2DS4 /// KIR3DL3 /// KIR3DL3 /// KIR3DS1 (11738374_at) / RFU C1QL1 (11718748_at) / Fold change /veh C1QL1 (11718748_at) / RFU TMPRSS4 (11747572_a_at) / Fold change /veh TMPRSS4 (11747572_a_at) / RFU HAMP (11756126_x_at) / Fold change /veh HAMP (11756126_x_at) / RFU RNFT2 (11725882_a_at) / Fold change /veh RNFT2 (11725882_a_at) / RFU NR4A2 (11747474_a_at) / Fold change /veh NR4A2 (11747474_a_at) / RFU ABCC12 (11746883_a_at) / Fold change /veh ABCC12 (11746883_a_at) / RFU TMEM136 (11760407_x_at) / Fold change /veh TMEM136 (11760407_x_at) / RFU CLDN22 /// WWC2 (11732394_at) / Fold change /veh CLDN22 /// WWC2 (11732394_at) / RFU HLA-DPB1 (11760878_x_at) / Fold change /veh HLA-DPB1 (11760878_x_at) / RFU SPINT1 (11716480_a_at) / Fold change /veh SPINT1 (11716480_a_at) / RFU GAP43 (11754022_s_at) / Fold change /veh GAP43 (11754022_s_at) / RFU A4GNT (11735810_at) / Fold change /veh A4GNT (11735810_at) / RFU PRB3 (11715151_x_at) / Fold change /veh PRB3 (11715151_x_at) / RFU TUBB4B (11761932_at) / Fold change /veh TUBB4B (11761932_at) / RFU CAPN14 (11732068_a_at) / Fold change /veh CAPN14 (11732068_a_at) / RFU TMCC2 (11721928_a_at) / Fold change /veh TMCC2 (11721928_a_at) / RFU IRGQ (11745062_a_at) / Fold change /veh IRGQ (11745062_a_at) / RFU FAM174B (11720279_a_at) / Fold change /veh FAM174B (11720279_a_at) / RFU TMPRSS4 (11748680_a_at) / Fold change /veh TMPRSS4 (11748680_a_at) / RFU FAM212B (11763350_a_at) / Fold change /veh FAM212B (11763350_a_at) / RFU PLEKHG5 (11743358_a_at) / Fold change /veh PLEKHG5 (11743358_a_at) / RFU ZSCAN30 (11745921_a_at) / Fold change /veh ZSCAN30 (11745921_a_at) / RFU CMKLR1 (11741424_a_at) / Fold change /veh CMKLR1 (11741424_a_at) / RFU LOC101060620 /// MAPK8IP1 (11723275_at) / Fold change /veh LOC101060620 /// MAPK8IP1 (11723275_at) / RFU SPTSSB (11747773_x_at) / Fold change /veh SPTSSB (11747773_x_at) / RFU PRSS12 (11739890_at) / Fold change /veh PRSS12 (11739890_at) / RFU BIN1 (11741810_x_at) / Fold change /veh BIN1 (11741810_x_at) / RFU WNT11 (11732464_a_at) / Fold change /veh WNT11 (11732464_a_at) / RFU C10orf10 (11716521_a_at) / Fold change /veh C10orf10 (11716521_a_at) / RFU C5orf56 (11738089_at) / Fold change /veh C5orf56 (11738089_at) / RFU CYB561 (11721691_x_at) / Fold change /veh CYB561 (11721691_x_at) / RFU ANKRD19P (11752326_a_at) / Fold change /veh ANKRD19P (11752326_a_at) / RFU OR2T12 /// OR2T33 /// OR2T8 (11738714_s_at) / Fold change /veh OR2T12 /// OR2T33 /// OR2T8 (11738714_s_at) / RFU VCAN (11748164_a_at) / Fold change /veh VCAN (11748164_a_at) / RFU JSRP1 (11732532_at) / Fold change /veh JSRP1 (11732532_at) / RFU KRTAP10-11 (11738290_x_at) / Fold change /veh KRTAP10-11 (11738290_x_at) / RFU MYO3A (11730013_a_at) / Fold change /veh MYO3A (11730013_a_at) / RFU EBF3 (11725865_a_at) / Fold change /veh EBF3 (11725865_a_at) / RFU CAMK2N1 (11719241_x_at) / Fold change /veh CAMK2N1 (11719241_x_at) / RFU C5orf56 (11738088_a_at) / Fold change /veh C5orf56 (11738088_a_at) / RFU OLFML3 (11715873_a_at) / Fold change /veh OLFML3 (11715873_a_at) / RFU LOC100653217 /// NTM (11731650_a_at) / Fold change /veh LOC100653217 /// NTM (11731650_a_at) / RFU MAPK11 (11762145_a_at) / Fold change /veh MAPK11 (11762145_a_at) / RFU FIZ1 (11724087_x_at) / Fold change /veh FIZ1 (11724087_x_at) / RFU OASL (11726364_x_at) / Fold change /veh OASL (11726364_x_at) / RFU SOX15 (11748057_x_at) / Fold change /veh SOX15 (11748057_x_at) / RFU CD79A (11719716_a_at) / Fold change /veh CD79A (11719716_a_at) / RFU HIST1H1D (11736915_at) / Fold change /veh HIST1H1D (11736915_at) / RFU CASKIN2 (11723855_a_at) / Fold change /veh CASKIN2 (11723855_a_at) / RFU LOC730098 (11760151_x_at) / Fold change /veh LOC730098 (11760151_x_at) / RFU OR4N2 (11742367_at) / Fold change /veh OR4N2 (11742367_at) / RFU PRRT2 (11749266_a_at) / Fold change /veh PRRT2 (11749266_a_at) / RFU SNX32 (11753110_a_at) / Fold change /veh SNX32 (11753110_a_at) / RFU CDHR5 (11726645_a_at) / Fold change /veh CDHR5 (11726645_a_at) / RFU RCAN1 (11760418_a_at) / Fold change /veh RCAN1 (11760418_a_at) / RFU FAM167A (11723789_a_at) / Fold change /veh FAM167A (11723789_a_at) / RFU FAM26E (11764081_at) / Fold change /veh FAM26E (11764081_at) / RFU ISYNA1 (11749810_s_at) / Fold change /veh ISYNA1 (11749810_s_at) / RFU ACY1 (11761880_at) / Fold change /veh ACY1 (11761880_at) / RFU 11764098_at / Fold change /veh 11764098_at / RFU SAMD14 (11745864_x_at) / Fold change /veh SAMD14 (11745864_x_at) / RFU NPB (11741838_a_at) / Fold change /veh NPB (11741838_a_at) / RFU TMPRSS6 (11731388_a_at) / Fold change /veh TMPRSS6 (11731388_a_at) / RFU KRTAP10-2 (11738614_at) / Fold change /veh KRTAP10-2 (11738614_at) / RFU ARHGAP8 /// PRR5-ARHGAP8 (11727945_x_at) / Fold change /veh ARHGAP8 /// PRR5-ARHGAP8 (11727945_x_at) / RFU KRTAP5-7 /// NADSYN1 (11734609_at) / Fold change /veh KRTAP5-7 /// NADSYN1 (11734609_at) / RFU RASL12 (11751679_a_at) / Fold change /veh RASL12 (11751679_a_at) / RFU CDKN2B (11736163_a_at) / Fold change /veh CDKN2B (11736163_a_at) / RFU PRF1 (11729649_at) / Fold change /veh PRF1 (11729649_at) / RFU, ZNF638 /// ZNF638-IT1 / Fold change vs veh, ZNF638 /// ZNF638-IT1 / RFU, PANK3 / Fold change vs veh, PANK3 / RFU, SH3YL1 / Fold change vs veh, SH3YL1 / RFU, ZEB2 / Fold change vs veh, ZEB2 / RFU, NRIP1 / Fold change vs veh, NRIP1 / RFU, PTTG1IP / Fold change vs veh, PTTG1IP / RFU, CAPN2 / Fold change vs veh, CAPN2 / RFU, MED14 / Fold change vs veh, MED14 / RFU, SNORA58 / Fold change vs veh, SNORA58 / RFU, C1orf63 / Fold change vs veh, C1orf63 / RFU, LRRFIP1 / Fold change vs veh, LRRFIP1 / RFU, NDUFAF7 / Fold change vs veh, NDUFAF7 / RFU, SLC12A2 / Fold change vs veh, SLC12A2 / RFU, IBTK / Fold change vs veh, IBTK / RFU, ESF1 / Fold change vs veh, ESF1 / Fold change vs veh, TMEM50B / RFU, TAOK1 / Fold change vs veh, TAOK1 / RFU, ACBD3 / Fold change vs veh, ACBD3 / RFU, TMA16 / Fold change vs veh, TMA16 / RFU, RWDD3 / Fold change vs veh, RWDD3 / RFU, BCAT1 / Fold change vs veh, BCAT1 / RFU, EDEM3 / Fold change vs veh, EDEM3 / RFU, TMEM33 / Fold change vs veh, TMEM33 / RFU, WDR75 / Fold change vs veh, WDR75 / RFU, AHCTF1 / Fold change vs veh, AHCTF1 / RFU, TFRC / Fold change vs veh, TFRC / RFU, ZDHHC17 / Fold change vs veh, ZDHHC17 / RFU, NOM1 / Fold change vs veh, NOM1 / RFU, ARL8B / Fold change vs veh, ARL8B / RFU, ZBTB11 / Fold change vs veh, ZBTB11 / RFU, TAMM41 / Fold change vs veh, TAMM41 / RFU, KIAA1704 /// LOC100996395 / Fold change vs veh, KIAA1704 /// LOC100996395 / RFU, ING1 / Fold change vs veh, ING1 / RFU, TRMT61B / Fold change vs veh, TRMT61B / RFU, FUBP3 / Fold change vs veh, FUBP3 / RFU, TP53 / Fold change vs veh, TP53 / RFU, TNKS2 / Fold change vs veh, TNKS2 / RFU, ZFP14 / Fold change vs veh, ZFP14 / RFU, ACTR2 / Fold change vs veh, ACTR2 / RFU, PPP3R1 / Fold change vs veh, PPP3R1 / RFU, PIK3R1 / Fold change vs veh, PIK3R1 / RFU, HNRNPA1 / Fold change vs veh, HNRNPA1 / RFU, RNF170 / Fold change vs veh, RNF170 / RFU, ZNF28 / Fold change vs veh, ZNF28 / RFU, RNGTT / Fold change vs veh, RNGTT / RFU, OGT / Fold change vs veh, OGT / RFU, BRD1 / Fold change vs veh, BRD1 / RFU, MARS / Fold change vs veh, MARS / RFU, ZNF655 / Fold change vs veh, ZNF655 / RFU, FAHD1 / Fold change vs veh, FAHD1 / RFU, BDP1 / Fold change vs veh, BDP1 / RFU, LRRCC1 / Fold change vs veh, LRRCC1 / RFU, ARID1A / Fold change vs veh, ARID1A / RFU, ZNF146 / Fold change vs veh, ZNF146 / RFU, ZNF330 / Fold change vs veh, ZNF330 / RFU, GPN3 / Fold change vs veh, GPN3 / RFU, C9orf123 / Fold change vs veh, C9orf123 / RFU, N4BP2L2 / Fold change vs veh, N4BP2L2 / RFU, ARFIP1 / Fold change vs veh, ARFIP1 / RFU, FAM179B / Fold change vs veh, FAM179B / RFU, BCL10 / Fold change vs veh, BCL10 / RFU, UHRF1BP1L / Fold change vs veh, UHRF1BP1L / RFU, BET1 / Fold change vs veh, BET1 / RFU, CNOT2 / Fold change vs veh, CNOT2 / RFU, ZNF268 / Fold change vs veh, ZNF268 / Fold change vs veh, ZNF507 / RFU, DGCR2 / Fold change vs veh, DGCR2 / RFU, WDSUB1 / Fold change vs veh, WDSUB1 / Fold change vs veh, HSP90B1 /// MIR3652 / RFU, ADSS / Fold change vs veh, ADSS / RFU, GK / Fold change vs veh, GK / RFU, ZNF148 / Fold change vs veh, ZNF148 / RFU, TAF9 / Fold change vs veh, TAF9 / RFU, SLC1A5 / Fold change vs veh, SLC1A5 / RFU, SLMO2 / Fold change vs veh, SLMO2 / RFU, ABCC4 / Fold change vs veh, ABCC4 / RFU, LOC101060439 /// RAP1B / Fold change vs veh, LOC101060439 /// RAP1B / RFU, RFX7 / Fold change vs veh, RFX7 / RFU, GTPBP10 / Fold change vs veh, GTPBP10 / RFU, CNEP1R1 / Fold change vs veh, CNEP1R1 / RFU, BIVM-ERCC5 /// ERCC5 / Fold change vs veh, BIVM-ERCC5 /// ERCC5 / RFU, ILF3 / Fold change vs veh, ILF3 / RFU 11762660_at / Fold change /veh 11762660_at / RFU VCAN (11757783_s_at) / Fold change /veh VCAN (11757783_s_at) / RFU DDX43 (11728927_at) / Fold change /veh DDX43 (11728927_at) / RFU KRT8 (11758188_x_at) / Fold change /veh KRT8 (11758188_x_at) / RFU NKD1 (11759106_at) / Fold change /veh NKD1 (11759106_at) / RFU SRD5A1 (11742802_a_at) / Fold change /veh SRD5A1 (11742802_a_at) / RFU TPSAB1 /// TPSB2 (11721975_s_at) / Fold change /veh TPSAB1 /// TPSB2 (11721975_s_at) / RFU GSTM3 (11746129_a_at) / Fold change /veh GSTM3 (11746129_a_at) / RFU IL23R (11737362_x_at) / Fold change /veh IL23R (11737362_x_at) / RFU TMEM51 (11727254_a_at) / Fold change /veh TMEM51 (11727254_a_at) / RFU PIWIL2 (11732686_x_at) / Fold change /veh PIWIL2 (11732686_x_at) / RFU ORM1 (11744905_x_at) / Fold change /veh ORM1 (11744905_x_at) / RFU CCDC152 (11743942_at) / Fold change /veh CCDC152 (11743942_at) / RFU ECM1 (11717891_a_at) / Fold change /veh ECM1 (11717891_a_at) / RFU IL23R (11748794_a_at) / Fold change /veh IL23R (11748794_a_at) / RFU TNFAIP8L3 (11732012_x_at) / Fold change /veh TNFAIP8L3 (11732012_x_at) / RFU MBOAT4 (11741988_at) / Fold change /veh MBOAT4 (11741988_at) / RFU 11764193_at / Fold change /veh 11764193_at / RFU TMEM53 (11763286_at) / Fold change /veh TMEM53 (11763286_at) / RFU MAGEB2 (11727129_at) / Fold change /veh MAGEB2 (11727129_at) / RFU TMEM200A (11744735_a_at) / Fold change /veh TMEM200A (11744735_a_at) / RFU CCDC152 (11751479_a_at) / Fold change /veh CCDC152 (11751479_a_at) / RFU FAM211A (11726209_a_at) / Fold change /veh FAM211A (11726209_a_at) / RFU RGS16 (11746705_a_at) / Fold change /veh RGS16 (11746705_a_at) / RFU VCAN (11755009_s_at) / Fold change /veh VCAN (11755009_s_at) / RFU RHOB (11743442_s_at) / Fold change /veh RHOB (11743442_s_at) / RFU RGS16 (11720943_a_at) / Fold change /veh RGS16 (11720943_a_at) / RFU RGS16 (11720944_at) / Fold change /veh RGS16 (11720944_at) / RFU, VPS4B / Fold change vs veh, VPS4B / RFU, CREB1 / Fold change vs veh, CREB1 / RFU, DNAJC13 / Fold change vs veh, DNAJC13 / RFU, GNAQ / Fold change vs veh, GNAQ / RFU, CDK5R1 / Fold change vs veh, CDK5R1 / RFU, ZRANB3 / Fold change vs veh, ZRANB3 / RFU, CUL4A / Fold change vs veh, CUL4A / RFU, CCNY / Fold change vs veh, CCNY / RFU, UFL1 / Fold change vs veh, UFL1 / RFU, COG3 / Fold change vs veh, COG3 / RFU, DIAPH2 / Fold change vs veh, DIAPH2 / RFU, SKA2 / Fold change vs veh, SKA2 / RFU, AFF3 / Fold change vs veh, AFF3 / RFU, LMF1 / Fold change vs veh, LMF1 / RFU, IPO11 / Fold change vs veh, IPO11 / RFU, DFFB / Fold change vs veh, DFFB / RFU, FOXP1 / Fold change vs veh, FOXP1 / RFU, CARD8 / Fold change vs veh, CARD8 / RFU, STRN3 / Fold change vs veh, STRN3 / RFU, ADK / Fold change vs veh, ADK / RFU, RASSF2 / Fold change vs veh, RASSF2 / RFU, WIPF1 / Fold change vs veh, WIPF1 / RFU, LARP1B / Fold change vs veh, LARP1B / RFU, RASA1 / Fold change vs veh, RASA1 / RFU, RB1 / Fold change vs veh, RB1 / RFU, PPFIA1 / Fold change vs veh, PPFIA1 / RFU, MAT2A / Fold change vs veh, MAT2A / RFU, CCT5 / Fold change vs veh, CCT5 / RFU, WDR92 / Fold change vs veh, WDR92 / RFU, CUX1 / Fold change vs veh, CUX1 / RFU, TTC7A / Fold change vs veh, TTC7A / RFU, TMEM135 / Fold change vs veh, TMEM135 / RFU, DEPTOR / Fold change vs veh, DEPTOR / RFU, CPM / Fold change vs veh, CPM / RFU, DNAJB6 / Fold change vs veh, DNAJB6 / RFU, CACNA2D3 / Fold change vs veh, CACNA2D3 / RFU, DTX4 / Fold change vs veh, DTX4 / RFU, TFCP2 / Fold change vs veh, TFCP2 / RFU, GMCL1 /// GMCL1P1 / Fold change vs veh, GMCL1 /// GMCL1P1 / RFU, AEBP2 / Fold change vs veh, AEBP2 / RFU, SNHG1 /// SNORD22 /// SNORD25 /// SNORD26 /// SNORD27 /// SNORD28 /// SNORD29 /// SNORD31 / Fold change vs veh, SNHG1 /// SNORD22 /// SNORD25 /// SNORD26 /// SNORD27 /// SNORD28 /// SNORD29 /// SNORD31 / Fold change (Aza/veh), C12orf56 (ProbeSet 11735607_a_at) / Fold change (ACY-1035/veh), C12orf56 (ProbeSet 11735607_a_at) / Fold change (Aza/veh), FGFR1OP (ProbeSet 11751329_s_at) / Fold change (ACY-1035/veh), FGFR1OP (ProbeSet 11751329_s_at) / Fold change (Aza/veh), VPS36 (ProbeSet 11739960_a_at) / Fold change (ACY-1035/veh), VPS36 (ProbeSet 11739960_a_at) / RFU SYPL1 (11715823_x_at) / Fold change /veh SYPL1 (11715823_x_at) / RFU IGFBP7 (11715501_s_at) / Fold change /veh IGFBP7 (11715501_s_at) / RFU REEP3 (11722064_at) / Fold change /veh REEP3 (11722064_at) / RFU IGLL1 (11728026_x_at) / Fold change /veh IGLL1 (11728026_x_at): dose or concentration left out as unconfirmed. Particulars: ProbeSet 11722302_a_at; LIST B.

As to `Nc1ccc(-c2cccs2)cc1NC(=O)c1ccc2c(c1)cc(C1CC1)n2CCN1CCOCC1` [ACY-1035], the “RFU, LRRFIP1” value is recorded as 143.54 RFU.

These data come from publication PMC5218480 (PLoS ONE, 2017).
